Measured values as given in US11767320B2, “Bicyclic dione compounds as inhibitors of KRAS” (INCYTE CORPORATION, priority 2020, dated 2023).

What was measured:
[1] = target: KRAS G12C (Homo sapiens, UniProt P01116, G12C); assay: GDP-GTP exchange assay (fluorescence based guanine nucleotide exchange, bodipy-GDP for GppNHp, SOS1); format: biochemical; conditions: bodipy-loaded KRAS G12C, 2 hours pre-incubation with inhibitor, read-out: G12C_exchange (KRAS_G12C exchange assay IC50)
In short: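 Bodipy-GDP-loaded KRAS G12C (5-25 nM final) pre-incubated 2 h with inhibitor in Hepes pH 7.5, MgCl2 buffer, then exchange started with 500 uM GppNHp and 150 nM SOS1 for 2 h at ambient temperature. G12D and G12V used 2.5 nM protein, with 4 h and 3 h exchange respectively. Fluorescence read at 485/520 nm; IC50 from four-parameter logistic fit.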

[2] = test system: MIA PaCa-2 (KRAS G12C) cells; assay: Cellular pERK HTRF assay; format: cell-based; conditions: Homo sapiens; MIA PaCa-2 cells, 4 hours, phospho-ERK 1/2 HTRF; read-out: G12C_pERK (KRAS_G12C pERK assay IC50)
Method: MIA PaCa-2 (KRAS G12C; ATCC® CRL-1420), A427 (KRAS G12D; ATCC® HTB53), HPAF-II (KRAS G12D; ATCC® CRL-1997) and NCI-H838 (KRAS WT; ATCC® CRL-5844) cells are purchased from ATCC and maintained in RPMI 1640 media supplemented with 10% FBS (Gibco/Life Technologies). The cells are plated at 5000 cells per well (8 uL) into Greiner 384-well low volume, flat-bottom, tissue culture treated white plates and incubated overnight at 37° C. 5% CO2. The next morning, test compound stock solutions are diluted in media at 3× the final concentration, and 4 uL are added to the cells. The plate is mixed by gentle rotation for 30 seconds (250 rpm) at room temperature. The cells are incubated with the KRAS G12C and G12D compounds for 4 hours or 2 hours respectively at 37° C., 5% CO2.
4 uL of 4× lysis buffer with blocking reagent (1:25) (Cisbio) are added to each well and plates are rotated gently (300 rpm) for 30 minutes at room temperature. 4 uL per well of Cisbio anti Phospho-ERK 1/2 d2 is mixed with anti Phospho-ERK 1/2 Cryptate (1:1) are added to each well, mixed by rotation and incubated overnight in the dark at room temperature. Plates are read on the Pherastar plate reader at 665 nm and 620 nm wavelengths. IC50 determination is performed by fitting the curve of inhibitor percent inhibition versus the log of the inhibitor concentration using the GraphPad Prism 7 software.

[3] = test system: MIA PaCa-2 cells (KRAS G12C); assay: Whole blood pERK1/2 HTRF assay; format: cell-based; conditions: Homo sapiens, compound in whole blood, 4 hours, phospho-ERK 1/2 HTRF, read-out: G12C_WB_pERK assay IC50
Method: MIA PaCa-2 cells (KRAS G12C; ATCC® CRL-1420) and HPAF-II (KRAS G12D; ATCC® CRL-1997) are maintained in RPMI 1640 with 10% FBS (Gibco/Life Technologies). The cells are seeded into 96 well tissue culture plates (Corning #3596) at 25000 cells per well in 100 uL media and cultured for 2 days at 37° C. 5% CO2 so that they are approximately 80% confluent at the start of the assay. Whole Blood are added to the 1 uL dots of compounds (prepared in DMSO) in 96 well plates and mixed gently by pipetting up and down so that the concentration of the compound in blood is 1× of desired concentration. The media is aspirated from the cells and 50 uL per well of whole blood with G12C or G12D compound is added and incubated for 4 or 2 hours respectively at 37° C. 5% CO2. After dumping the blood, the plates are gently washed twice by adding PBS to the side of the wells and dumping the PBS from the plate onto a paper towel, tapping the plate to drain well. 50 ul/well of 1× lysis buffer #1 (Cisbio) with blocking reagent (1:25) (Cisbio) is then added and incubated at room temperature for 30 minutes with shaking (250 rpm). Following lysis, 16 uL of lysate is transferred into 384-well Greiner small volume white plate using an Assist Plus (Integra Biosciences, NH). 4 uL of 1:1 mixture of anti Phospho-ERK 1/2 d2 and anti Phospho-ERK 1/2 Cryptate (Cisbio) is added to the wells using the Assist Plus and incubated at room temperature overnight in the dark. Plates are read on the Pherastar plate reader at 665 nm and 620 nm wavelengths. IC50 determination is performed by fitting the curve of inhibitor percent inhibition versus the log of the inhibitor concentration using the GraphPad Prism 7 software.

KRAS G12C, sequence (P01116 1-188 isoform P01116-2 G12C): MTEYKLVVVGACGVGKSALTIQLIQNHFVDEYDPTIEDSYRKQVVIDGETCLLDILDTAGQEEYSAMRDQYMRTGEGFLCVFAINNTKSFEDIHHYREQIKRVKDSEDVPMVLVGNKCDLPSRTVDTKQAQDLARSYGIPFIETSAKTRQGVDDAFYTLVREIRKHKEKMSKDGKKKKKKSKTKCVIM

Compound	IC50 [1] [nM]	IC50 [2] [nM]	IC50 [3] [nM]
[2H]C([2H])(n1c(=O)c(=O)n(-c2c(C)ccnc2C(C)C)c2nc(-c3cccc(Cl)c3Cl)c(Cl)cc21)C1(F)CN(C(=O)C=C)C1 [Example 51, 1-((1-acryloyl-3-fluoroazetidin-3-yl)methyl-d2)-7-chloro-6-(2,3-dichlorophenyl)-4-(2-isopropyl-4-methylpyridin-3-yl)-1,4-dihydropyrido[2,3-b]pyrazine-2,3-dione]	≤ 100	≤ 100	–
C=CC(=O)N1CC(F)(Cn2c(=O)c(=O)n(-c3c(C)ccnc3C(C)C)c3nc(-c4c(O)cccc4Cl)c(Cl)cc32)C1 [Example 56, 1-((1-acryloyl-3-fluoroazetidin-3-yl)methyl)-7-chloro-6-(2-chloro-6-hydroxyphenyl)-4-(2-isopropyl-4-methylpyridin-3-yl)-1,4-dihydropyrido[2,3-b]pyrazine-2,3-dione]	≤ 100	≤ 100	≤ 100
C=CC(=O)N1CC(F)(Cn2c(=O)c(=O)n(-c3c(C)ccnc3C(C)C)c3nc(-c4c(Cl)cccc4OC)c(Cl)cc32)C1 [Example 57, 1-((1-acryloyl-3-fluoroazetidin-3-yl)methyl)-7-chloro-6-(2-chloro-6-methoxyphenyl)-4-(2-isopropyl-4-methylpyridin-3-yl)-1,4-dihydropyrido[2,3-b]pyrazine-2,3-dione]	≤ 100	≤ 100	≤ 100
C=CC(=O)N1CC(F)(Cn2c(=O)c(=O)n(-c3c(C)ccnc3C(C)C)c3nc(-c4c(C)cccc4OC)c(Cl)cc32)C1 [Example 58, 1-((1-acryloyl-3-fluoroazetidin-3-yl)methyl)-7-chloro-4-(2-isopropyl-4-methylpyridin-3-yl)-6-(2-methoxy-6-methylphenyl)-1,4-dihydropyrido[2,3-b]pyrazine-2,3-dione]	≤ 100	≤ 100	100 to 1000
C=CC(=O)N1CC(F)(Cn2c(=O)c(=O)n(-c3c(C)ccnc3C(C)C)c3nc(-c4c(Cl)cccc4CO)c(Cl)cc32)C1 [Example 59, 1-((1-acryloyl-3-fluoroazetidin-3-yl)methyl)-7-chloro-6-(2-chloro-6-(hydroxymethyl)phenyl)-4-(2-isopropyl-4-methylpyridin-3-yl)-1,4-dihydropyrido[2,3-b]pyrazine-2,3-dione]	≤ 100	≤ 100	100 to 1000
C=CC(=O)N1CC(F)(Cn2c(=O)c(=O)n(-c3c(C)ccnc3C(C)C)c3nc(-c4c(Cl)ccc5c4OCO5)c(Cl)cc32)C1 [Example 60, 1-((1-acryloyl-3-fluoroazetidin-3-yl)methyl)-7-chloro-6-(5-chlorobenzo[d][1,3]dioxol-4-yl)-4-(2-isopropyl-4-methylpyridin-3-yl)-1,4-dihydropyrido[2,3-b]pyrazine-2,3-dione]	≤ 100	≤ 100	100 to 1000
C=CC(=O)N1CC(F)(Cn2c(=O)c(=O)n(-c3c(C(C)C)ccnc3C(C)C)c3nc(-c4c(O)cccc4Cl)c(Cl)cc32)C1 [Example 61, 1-((1-acryloyl-3-fluoroazetidin-3-yl)methyl)-7-chloro-6-(2-chloro-6-hydroxyphenyl)-4-(2,4-diisopropylpyridin-3-yl)-1,4-dihydropyrido[2,3-b]pyrazine-2,3-dione]	≤ 100	≤ 100	≤ 100
C=CC(=O)N1CC(F)(Cn2c(=O)c(=O)n(-c3c(C(C)C)ccnc3C(C)C)c3nc(-c4c(Cl)cccc4OC)c(Cl)cc32)C1 [Example 62, 1-((1-acryloyl-3-fluoroazetidin-3-yl)methyl)-7-chloro-6-(2-chloro-6-methoxyphenyl)-4-(2,4-diisopropylpyridin-3-yl)-1,4-dihydropyrido[2,3-b]pyrazine-2,3-dione]	≤ 100	≤ 100	≤ 100
C=CC(=O)N1CC(F)(Cn2c(=O)c(=O)n(-c3c(C(C)C)ccnc3C(C)C)c3nc(-c4c(C)cccc4OC)c(Cl)cc32)C1 [Example 63]	≤ 100	≤ 100	≤ 100
C=C(F)C(=O)N1CC(F)(Cn2c(=O)c(=O)n(-c3c(C(C)C)ccnc3C(C)C)c3nc(-c4c(O)cccc4Cl)c(Cl)cc32)C1 [Example 64, 7-chloro-6-(2-chloro-6-hydroxyphenyl)-4-(2,4-diisopropylpyridin-3-yl)-1-((3-fluoro-1-(2-fluoroacryloyl)azetidin-3-yl)methyl)-1,4-dihydropyrido[2,3-b]pyrazine-2,3-dione]	≤ 100	≤ 100	100 to 1000
